The source of these data is paper PMC6892751, “Novel Angiotensin-Converting Enzyme-Inhibitory Peptides From Fermented Bovine Milk Started by Lactobacillus helveticus KLDS.31 and Lactobacillus casei KLDS.105: Purification, Identification, and Interaction Mechanisms” (Frontiers in Microbiology, 2019).

One test has as its system ACE. To be noted: read-out: IC50 of ACE inhibition, cited from earlier work. An excerpt:
ACE-inhibitory peptides from bovine milk protein have been described previously ([De Leo et al., 2009]). These bioactive peptides are typically produced by enzymatic hydrolysis, microbial fermentation, or genetic engineering. In particular, more attention has been focused on microbial fermentation as the food grade bacteria, such as lactic acid bacteria (LAB), provide enriched food bioactive substances ([Castellano et al., 2013]). Furthermore, the hydrolytic processing of milk protein through the action of chymosin and Lactobacillus casei can also improve cheese flavor ([Lemieux et al., 2010]) ...

For test [1], the target named is T1, angiotensin I-converting enzyme (ACE) (Oryctolagus cuniculus, UniProt P12822).
T1 sequence (P12822 34-1310): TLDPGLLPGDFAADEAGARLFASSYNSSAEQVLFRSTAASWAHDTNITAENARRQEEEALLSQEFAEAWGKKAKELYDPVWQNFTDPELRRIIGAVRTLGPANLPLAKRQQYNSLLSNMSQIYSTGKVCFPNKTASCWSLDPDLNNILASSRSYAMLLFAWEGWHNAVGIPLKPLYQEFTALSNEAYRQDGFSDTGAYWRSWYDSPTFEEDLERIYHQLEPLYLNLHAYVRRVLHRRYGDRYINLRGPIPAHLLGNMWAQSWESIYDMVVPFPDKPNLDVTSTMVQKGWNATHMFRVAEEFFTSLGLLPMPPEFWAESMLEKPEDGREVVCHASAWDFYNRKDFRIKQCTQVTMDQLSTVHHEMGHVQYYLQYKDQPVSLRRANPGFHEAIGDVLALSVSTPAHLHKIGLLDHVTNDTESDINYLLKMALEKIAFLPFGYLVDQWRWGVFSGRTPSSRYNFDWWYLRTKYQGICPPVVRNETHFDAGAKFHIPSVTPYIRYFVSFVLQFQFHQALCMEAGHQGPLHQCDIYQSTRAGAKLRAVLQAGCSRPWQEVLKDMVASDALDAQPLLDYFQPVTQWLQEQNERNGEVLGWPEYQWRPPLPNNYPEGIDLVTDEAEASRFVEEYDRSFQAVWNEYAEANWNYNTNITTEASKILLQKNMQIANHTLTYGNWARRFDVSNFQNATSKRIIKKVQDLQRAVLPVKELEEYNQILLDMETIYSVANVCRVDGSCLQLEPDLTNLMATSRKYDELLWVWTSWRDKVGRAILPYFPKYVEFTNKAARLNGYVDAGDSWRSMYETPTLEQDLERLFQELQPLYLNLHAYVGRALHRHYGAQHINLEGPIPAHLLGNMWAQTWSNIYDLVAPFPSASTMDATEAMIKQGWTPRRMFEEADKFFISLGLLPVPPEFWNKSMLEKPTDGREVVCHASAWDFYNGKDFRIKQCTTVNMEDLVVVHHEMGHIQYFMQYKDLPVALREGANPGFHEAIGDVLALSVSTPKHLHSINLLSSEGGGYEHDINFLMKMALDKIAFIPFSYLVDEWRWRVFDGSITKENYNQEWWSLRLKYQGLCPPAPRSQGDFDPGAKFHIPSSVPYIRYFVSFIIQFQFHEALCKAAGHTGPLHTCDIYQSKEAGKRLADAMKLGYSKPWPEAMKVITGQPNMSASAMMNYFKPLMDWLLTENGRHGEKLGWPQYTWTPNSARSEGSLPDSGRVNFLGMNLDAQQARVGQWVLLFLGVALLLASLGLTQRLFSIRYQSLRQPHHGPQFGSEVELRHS
Kind of test: ACE-inhibitory activity determination by HPLC (hippuric acid from Hip-His-Leu). The test is classed as biochemical. To be noted: HPLC of hippuric acid, Hip-His-Leu 5 mM, sodium borate buffer 50 mM pH 8.1, ACE 0.1 U/mL, 37°C 60 min, mean ± SD, triplicate, read-out: IC50 of ACE inhibition. The procedure:
The determination was measured by HPLC, with slight changes according to the procedure described by [Gonzalez-Gonzalez et al. (2011)]. The sample (20 μL) was dissolved in 120 μL Hip-His-Leu (5 mM) with sodium borate buffer (50 mM, pH 8.1). After incubation at 37°C for 3 min, the ACE solution (0.1 U/mL, 10 μL) was added to the sample and incubated for 60 min at the above temperature. Subsequently, 0.15 mL HCl (1 M) was used to terminate the reaction. The content of hippuric acid (HA) produced by reaction was determined by reverse-phase high-performance liquid chromatography (RP-HPLC, Waters Corporation, United States). A symmetry C18 Column (3.9 × 150 mm, 5 μm, Waters, United States) was used with the Waters HPLC model Alliance 2690 system, which included an ultraviolet detector (Waters, United States). […] Flow rate was 0.8 mL/min. The sample (6 μL) was filtered (0.45 μm filter) and measured at 228 nm. A standard curve was generated using concentrations of standard HA and peak areas. The ACE-inhibitory activity was determined as:
ACEinhibitoryactivity(%)=[HA]control-[HA]sample/[HA]control×100%
The concentration of inhibitor that inhibits 50% ACE activity is defined as IC50 value.

Where [2] appears, read: peptides from low-fat milk fermented with several LAB, ref Chen et al. (2007).

Read-outs that look alike come from different tables or passages of the source. Where no end group is shown, it is not given here.

In the case of Gly-Val-Trp, the IC50 in the test on ACE (setting [2]) is 240 µM. Take KAALSGM [Lys-Ala-Ala-Leu-Ser-Gly-Met]: the half-maximal inhibitory concentration (IC50) in test [1] stood at 110 ± 3.87 µM.

Regarding KPAGDF [Lys-Pro-Ala-Gly-Asp-Phe], the concentration for half-maximal inhibition (IC50) in test [1] came out at 77.5 ± 2.74 µM. Take “LDHVPGGAR [Leu-Asp-His-Val-Pro-Gly-Gly-Ala-Arg]”: in test [1], the concentration for half-maximal inhibition (IC50) turned out to be 201 ± 5.24 µM. Take Gly-Thr-Trp: in the test on ACE (setting [2]), the IC50 is 464 µM. As to “RLSFDP [literature peptide from β-lactoglobulin hydrolysate (f148-153), sour milk fermented with Lb. helveticus LB10]”, the 50% inhibitory concentration (IC50) with ACE (from sour milk fermented with Lb. helveticus LB10, β-lactoglobulin hydrolysate (f148-153), ref Pan and Guo (2010)) is 177 µM. For KKAAMAM [Lys-Lys-Ala-Ala-Met-Ala-Met], the concentration for half-maximal inhibition (IC50) in test [1] stood at 189 ± 4.61 µM.
